Experiment in all cases: Post-emergence field trial, visual weed control
Holding throughout (assay type): in vivo

Experiment [1] relates to POLCO = buckwheat, wild (Polygonum convolvulus L.). As to conditions: 28 days after application, foliar. Here is the method: (§1) Multiple post-emergence field trials were conducted under field conditions in the United States (Mississippi, South Dakota, and Minnesota) and Mexico. Trial sites were located in commercially grown fields of corn (ZEAMX), spring wheat (TRZAS), and winter wheat (TRZAW), using standard herbicide small plot research methodology. Post-emergence trial plot size varied from 2 to 3 meter (m)×4 to 5 m (width×length) with 4 replicates per treatment. The crops were grown using normal cultural practices for fertilization, seeding, watering, and maintenance to ensure good growth of the crops and the weeds.
(§2) All treatments in the post-emergence field trials were applied using a backpack compressed carbon dioxide (CO2) or nitrogen (N2) sprayer with flat fan nozzles calibrated to apply 94 to 250 liters per hectare (L/ha) spray volume at approximately 30-40 pounds per square inch (psi) nozzle pressure. Commercially available products of fluoroxypyr-meptyl (STARANE® 200, 200 grams acid equivalent per liter (g ae/L) and fluoroxypyr-meptyl EC 240 g ae/L) and flumetsulam (75WDG) were mixed in water at appropriate formulated product rates to achieve the desired rates based on a unit area of application (hectare) to achieve the desired rates as shown. […] Treatments were rated at 7 to 45 days after application (DAA) as compared to the untreated control plants. Visual weed control was scored on a scale of 0 to 100 percent where “0” corresponds to no injury and “100” corresponds to complete kill.
(§3) The trial sites had naturally occurring populations of weeds. The weed spectrum included, but was not limited to, AMARE, AMASS, CHEAL, CHEMU, IPOLA, KCHSC, POLCO, RUMCR, and SASKR.
(§4) A t-test (alpha=0.05) between Colby predictions and observed combinations was used to test for significant differences indicating synergy or antagonism using replicate data.
(§5) The following equation was used to calculate the expected activity of mixtures containing two active ingredients, A and B: Expected=A+B−(A×B/100) • A=observed efficacy of active ingredient A at the same concentration as used in the mixture; • B=observed efficacy of active ingredient B at the same concentration as used in the mixture.

Experiment [2] deals with KCHSC = kochia (Kochia scoparia (L.) Schrad.). As to conditions: 28 days after application, foliar. On the procedure: as §1, §2, §3, §4, §5
Experiment [3] relates to CHEAL = lambsquarters, common (Chenopodium album L.). The settings on record: 30 days after application, foliar. On the procedure:
as §1, §2, §3, §4, §5

Experiment [4] deals with AMASS = pigweed species (Amaranthus sp.). The settings on record: foliar; for Flumetsulam % Visual Weed Control: flumetsulam 20 g ai/ha. On the procedure:
as §1, §2, §3, §4, §5

Experiment [5] relates to IPOLA = morningglory, pitted (Ipomoea lacunosa L.). As to conditions: 28 days after application, foliar. On the procedure: as §1, §2, §3, §4, §5
Experiment [6] relates to RUMCR = dock, curly (Rumex crispus L.). The settings on record: 45 days after application, foliar. On the procedure:
as §1, §2, §3, §4, §5

Experiment [7] has as its system SASKR = thistle, Russian (Salsola iberica Sennen & Pau). The settings on record: 29 days after application, foliar. On the procedure: as §1, §2, §3, §4, §5
The test system of experiment [8] is CHEMU = goosefoot, nettleleaf (Chenopodium murale L.). As to conditions: 30 days after application, foliar. On the procedure: as §1, §2, §3, §4, §5
In experiment [9] the test system is AMARE = pigweed, redroot (Amaranthus retroflexus L.). The settings on record: foliar. Here is the method: as §1, §2, §3, §4, §5

As to `CCCCCCC(C)OC(=O)COc1nc(F)c(Cl)c(N)c1Cl` (racemic) [Fluroxypyr-Meptyl, (RS)-1-methylheptyl 4-amino-3,5-dichloro-6-fluoro-2-pyridyloxyacetate], the “Fluroxypyr-Meptyl % Visual Weed Control” value in experiment [1] (fluroxypyr-meptyl 35 g ae/ha) amounted to 38%; in experiment [1] (fluroxypyr-meptyl 70 g ae/ha) it was 64%; in experiment [2] (fluroxypyr-meptyl 35 g ae/ha) it was 30%; in [3] (fluroxypyr-meptyl 75 g ae/ha), 20%; in [4] (7 days after application, fluroxypyr-meptyl 75 g ae/ha), 15%; in experiment [4] (14 days after application, fluroxypyr-meptyl 50 g ae/ha) it was 21%. The “Fluroxypyr-Meptyl % Visual Weed Control” value in [4] (14 days after application, fluroxypyr-meptyl 75 g ae/ha) came out at 18%; in experiment [5] (fluroxypyr-meptyl 70 g ae/ha), 20%; in experiment [6] (fluroxypyr-meptyl 75 g ae/ha), 50%; in [7] (fluroxypyr-meptyl 35 g ae/ha), 23%; in experiment [8] (fluroxypyr-meptyl 50 g ae/ha) it was 20%; in experiment [8] (fluroxypyr-meptyl 75 g ae/ha) it was 28%. For the same compound, the “Fluroxypyr-Meptyl % Visual Weed Control” value is 8% in [9] (13 days after application, fluroxypyr-meptyl 110 g ae/ha); 3% in experiment [9] (28 days after application, fluroxypyr-meptyl 35 g ae/ha); 13% in experiment [9] (28 days after application, fluroxypyr-meptyl 110 g ae/ha).

With `Cc1ccn2nc(S(=O)(=O)Nc3c(F)cccc3F)nc2n1` [Flumetsulam, 2′,6′-difluoro-5-methyl[1,2,4]triazolo-[1,5-a]pyrimidine-2-sulfonanilide], the “Flumetsulam % Visual Weed Control” value in [1] (flumetsulam 18 g ai/ha) is 0%; in experiment [1] (flumetsulam 35 g ai/ha) it was 0%; in [2] (flumetsulam 35 g ai/ha) it was 58%; in experiment [3] (flumetsulam 15 g ai/ha), 31%; in experiment [3] (flumetsulam 30 g ai/ha) it was 35%; in experiment [3] (flumetsulam 60 g ai/ha) it was 40%. The “Flumetsulam % Visual Weed Control” value in experiment [4] (7 days after application) is given as 79%; in experiment [4] (14 days after application), 81%; in experiment [5] (flumetsulam 18 g ai/ha), 33%; in [6] (flumetsulam 15 g ai/ha), 40%; in experiment [6] (flumetsulam 30 g ai/ha), 52%; in experiment [6] (flumetsulam 60 g ai/ha), 70%. For the same compound, the “Flumetsulam % Visual Weed Control” value in [7] (flumetsulam 9 g ai/ha) came to 67%; in experiment [8] (flumetsulam 15 g ai/ha), 57%; in [8] (flumetsulam 30 g ai/ha), 66%; in experiment [8] (flumetsulam 60 g ai/ha), 69%; in experiment [9] (13 days after application, flumetsulam 18 g ai/ha) it was 81%; in [9] (28 days after application, flumetsulam 35 g ai/ha), 45%.

The record behind these values is patent US9131696B2, “Herbicidal compositions comprising fluroxypyr and flumetsulam” (Dow AgroSciences LLC, priority 2012, dated 2015).
